Reference: patent publication US8722884B2, “Pyrimidine derivatives for the treatment of abnormal cell growth” (Verastem, Inc., priority 2005, dated 2014)
In brackets after ≈: the same amount, converted by molar mass. Where two headings read alike, the source gives them in different places. One block for each compound: values may come before it.

How the values were obtained:
Type in all cases: physicochemical
[1] = Solubility in aqueous media and organic solvents
Excerpt: (§1) Solubility increased in acidic media, with a solubility of 1 mgA/ml observed in pH 2 buffer. […] Solubility determined in several common organic solvents, such as ethanol and acetone, was about 200 mgA/ml. The following table summarizes the physical and chemical properties of the monobesylate salt of Formula I: […]

pKa in solution = conditions: weak base
Excerpt: as §1

[2] = Solid-state stability at 70 C/75% RH
Method: The monobesylate salt of Formula I (m. wt. 665.67), Form A, was a white crystalline solid with irregularly-shaped particle morphology ranging from approximately […] in diameter. This anhydrous form melted (DSC, Tonset) at 254° C. with decomposition.

[3] = VTI moisture adsorption/desorption (hygroscopicity); conditions: for Hygroscopicity assessment in words: VTI, up to 90% RH; for Hygroscopic moisture gain / weight gain at 90% RH (VTI): flow-through VTI, 25 C; for Hygroscopic moisture gain / weight gain at 90% RH (VTI) / Hygroscopicity (by weight) at 90% relative humidity at ambient temperature: 90% RH
Excerpt: The salts and solvates of the present invention can be further characterized by VTI water vapor adsorption to measure hygroscopicity. […] Other methods of analysis are described in more detail in the Examples.
This monobesylate salt of Formula I appeared as fine crystalline particles of moderate to high birefringence with irregularly-shaped morphology. The size of the particles ranged from approximately […] to 50 mm in diameter, with some aggregates up to about 200 mm in diameter. The material was tested using DSC at a heating rate of five degrees/minute, FIG. 1(b). A sharp melting endotherm with onset temperature of 254° C. was observed. Minor front tailing for the endotherm was also noted. The material was tested by TGA at a heating rate of five degrees/minute, FIG. 1(c). No loss in weight was observed up to the melting onset temperature (˜250)° C. […] These solvents were thus likely entrained by the crystal and were not released until melting. […] The dynamic moisture sorption was evaluated using a flow-through VTI apparatus at 25° C. The sample was initially dried at ˜2% RH for maximum of two hours, followed by a moisture adsorption ramp from 10% RH to 90%, then a desorption ramp back down to 10% RH. Initial drying removed 0.08% by weight, followed by a maximum moisture gain of 0.09% at 90% RH. Thus, this complex was non-hygroscopic.
The sample was tested in flow-through VTI with relative humidity ramp from 0 to 90%, then a desorption ramp back down to 10%1 RH at 25 C. […] The monomesylate was analyzed for elemental composition of carbon, hydrogen, nitrogen, fluorine and sulfur. The results from analysis met the stoichiometry of a mono-mesylate salt containing 1% THF.
The hemihydrate tosylate salt of Formula I consisted of fine birefringent aggregated needles and lathes. This sample was crystalline by PXRD. The thermal profile of this sample was obtained by heating from 30-300 C at 5 C/min. […] The volatile content of this sample was obtained by heating from 30-225 C at 5 C/min. The total volatile content was 1.4%, and consisted of water and ethanol by IR. The sample was tested in flow-through VTI with relative humidity ramp from 0 to 90% at 25 C.

[4] = listed as monobesylate salt of Formula I

Acetone solubility ([1]; acetone): 206 ugA/ml | Aqueous buffer pH 1.4 solubility ([1]; aqueous buffer pH 1.4): 1162 ugA/ml | Aqueous buffer pH 7 solubility ([1]; aqueous buffer pH 7): 4 ugA/ml | solubility ([1]; aqueous buffer, heading: Solubility in unbuffered water, unbuffered water, pH 2.65): 369 µg/mL (≈ 727 µM) | solubility ([1]; aqueous buffer, pH 2 buffer, read-out: Solubility in pH 2 buffer): 1000 µg/mL (≈ 1970 µM) | solubility ([1]; aqueous media, water, aqueous, above pH 5, read-out: Aqueous solubility above pH 5): ~5000 µg/mL (≈ 9850 µM) | Ethanol solubility ([1]; ethanol): 260 ugA/ml | Solubility in common organic solvents, such as ethanol and acetone ([1]; organic solvents): about 200 mgA/ml | Unbuffered water solubility (pH 2.65) ([1]; unbuffered water, pH 2.65 (table)): 369 ugA/ml | pKa (pKa in solution): 4.58 | Solid-state stability, 3 weeks at 70 C./75% RH (purity by HPLC area % relative to room temperature control) ([2]; 3 weeks, 70 C/75% RH): >99.9% (purity by HPLC | Hygroscopicity assessment in words [3, 4]: non-hygroscopic | Hygroscopic moisture gain / weight gain at 90% RH (VTI) [3, 4]: 0.09%
Compound: CN(c1ncccc1CNc1nc(Nc2ccc3c(c2)CC(=O)N3)ncc1C(F)(F)F)S(C)(=O)=O [Example 1, N-Methyl-N-(3-{[2-(2-oxo-2,3-dihydro-1H-indol-5-ylamino)-5-trifluoromethyl-pyrimidin-4-ylamino]-methyl}-pyridin-2-yl)-methanesulfonamide]
Solid-state stability in words ([2]; three weeks exposure to 70 C/75% RH): chemically and physically stable in the solid-state

Hygroscopicity (by weight) at 90% relative humidity at ambient temperature [3]: 0.16% | Hygroscopic moisture gain / weight gain at 90% RH (VTI) ([3]; listed as besylate salt of Formula I): 0.16%
Compound: CN(c1ncccc1CNc1nc(Nc2ccc3c(c2)CC(=O)N3)ncc1C(F)(F)F)S(C)(=O)=O [Example 2, N-Methyl-N-(3-{[2-(2-oxo-2,3-dihydro-1H-indol-5-ylamino)-5-trifluoromethyl-pyrimidin-4-ylamino]-methyl}-pyridin-2-yl)-methanesulfonamide]

Hygroscopicity (by weight) at 90% relative humidity at ambient temperature [3]: 1.4% | Hygroscopicity assessment in words ([3]; listed as monomesylate): kinetically non-hygroscopic | Hygroscopic moisture gain / weight gain at 90% RH (VTI) ([3]; listed as monomesylate): 1.4%
Compound: CN(c1ncccc1CNc1nc(Nc2ccc3c(c2)CC(=O)N3)ncc1C(F)(F)F)S(C)(=O)=O [Example 3, N-Methyl-N-(3-{[2-(2-oxo-2,3-dihydro-1H-indol-5-ylamino)-5-trifluoromethyl-pyrimidin-4-ylamino]-methyl}-pyridin-2-yl)-methanesulfonamide]

Hygroscopicity (by weight) at 90% relative humidity at ambient temperature [3]: 0.6% | Hygroscopic moisture gain / weight gain at 90% RH (VTI) ([3]; listed as tosylate salt of Formula I): 0.6%
Compound: CN(c1ncccc1CNc1nc(Nc2ccc3c(c2)CC(=O)N3)ncc1C(F)(F)F)S(C)(=O)=O [Example 4, N-Methyl-N-(3-{[2-(2-oxo-2,3-dihydro-1H-indol-5-ylamino)-5-trifluoromethyl-pyrimidin-4-ylamino]-methyl}-pyridin-2-yl)-methanesulfonamide]

Hygroscopicity (by weight) at 90% relative humidity at ambient temperature [3]: 2.7%
Compound: CN(c1ncccc1CNc1nc(Nc2ccc3c(c2)CC(=O)N3)ncc1C(F)(F)F)S(C)(=O)=O [Example 5, N-Methyl-N-(3-{[2-(2-oxo-2,3-dihydro-1H-indol-5-ylamino)-5-trifluoromethyl-pyrimidin-4-ylamino]-methyl}-pyridin-2-yl)-methanesulfonamide]

Hygroscopicity (by weight) at 90% relative humidity at ambient temperature [3]: 1.4%
Compound: CN(c1ncccc1CNc1nc(Nc2ccc3c(c2)CC(=O)N3)ncc1C(F)(F)F)S(C)(=O)=O [Example 6, N-Methyl-N-(3-{[2-(2-oxo-2,3-dihydro-1H-indol-5-ylamino)-5-trifluoromethyl-pyrimidin-4-ylamino]-methyl}-pyridin-2-yl)-methanesulfonamide]
